This is an account of results in patent US20250092395A1, “A GLUN2D INHIBITOR FOR USE IN THE TREATMENT OR RELAPSE PREVENTION OF A DEPRESSIVE EPISODE” (priority 2022, published 2025).

Structures are written as SMILES. “Also recorded” adds a separate entry of the source.

Experiment [1] concerns mice subjected to the chronic despair model (CDM). The experiment in a line: Chronic despair model (CDM) swim test, immobility time. Type of experiment: in vivo. The note with it: for immobility time of CDM mice treated with NAB-14, comedication: CIQ (10 mg/kg) or lorazepam (0,125 mg/kg) applied prior to NAB-14. Here is the method:
Induction phase: Mice were forced to swim in a glass cylinder (0 26 cm, 60 cm high) filled to 25 cm with 25° C. warm water for 10 min on 5 consecutive days. After the swimming, the animals were kept in their cages for two days before treatment and experiment readout was performed. The immobility time was measured in each session.
(§1) Behavioral Readout: After the treatment intervention, animals were either tested in an additional swim session (test day) to measure immobility time or tested in the InteliCage using the Nose-pokes sucrose preference test. For the assessment of the immobility time, mice were videotaped and two independent raters who were blinded to the experimental group analyzed the videos. Immobility time was defined as the cumulative time that the animals spend stationary with only enough movements of the tails or the forepaws to keep the head above the water surface. No distance is actively travelled except for passive floating, no directed movement of the front paws observed and the body of the animal mostly oriented parallel to the walls of the cylinder.

Experiment [2] concerns CA3-CA1 synapse, CA1 pyramidal neurons in hippocampal brain slices. The experiment in a line: LTP/LTD protocols and wash-in in brain slices of unstressed mice, substance in bathing solution. The experiment is classed as cell-based. The settings on record: hydrochloride; for LTP inducibility, associative LTP protocol (aLTP): unstressed mice, bath with picrotoxin, R,S-ketamine 10 μM, S-ketamine 5 μM.

A further experiment relates to CDM mice. Kind of experiment: Nose-poke sucrose preference test in CDM mice. Type of experiment: in vivo. The settings on record: CIQ or lorazepam applied prior to NAB-14.
Source text: as §1
The IntelliCage system (TSE Systems) allows simultaneous analysis of spontaneous and exploratory behavior, activity pattern, and drinking preference of up to 16 group-housed mice implanted with radio-frequency identification (RFID) transponders. The unit consists of an open common space with 4 red shelters in the center and 4 recording corners. Mice have free access to food in the middle of the IntelliCage, water is available in the corners behind remote-controlled guillotine doors. Each corner is equipped with 2 drinking bottles and permits the visit of only one mouse at the same time. The scored parameters—the nosepokes toward the doors and the licks on the bottles—were monitored by a PC-based tracking software (IntelliCage Plus, TSE Systems). Initially, the mice were allowed to adapt to the IntelliCage for at least 7 days with water available ad libitum in all corners. Then for 3 days the animals were habituated to the sucrose taste: in each corner one of the bottles was filled with 1% sucrose solution and the other one with water. Both doors in the corner were open allowing free choice between the bottles. Next, a nosepoke adaptation period was carried out, where all doors were closed and the mice had to perform a nosepoke to open them. The opened door closes automatically after 5 s of drinking. In all tasks involving sucrose-filled bottles, the positions of the bottles were exchanged every 24 h. The Nosepoke SPT protocol was used (see Alboni et al.) for measurement of sucrose preference with gradually increasing effort (number of nosepokes) to reach the sucrose bottles for a short period of time (12 h). In this paradigm each door opens in response to a nosepoke and closes after 5 s licking. The number of nosepokes needed to open a door to a side with a sucrose containing bottle gradually increases (1, 2, 3, 4, 5, 6, 8, 10, 12, 16, 20, 24) after every 8 sucrose licking sessions. For each bottle the number of licks was recorded and the averaged sucrose preference was calculated as percentage of the total number of licks.

Experiment [3] relates to CA3-CA1 synapse in hippocampal brain slices of CDM mice. Kind of experiment: aLTP/aLTD inducibility in hippocampal brain slices of CDM mice after in vivo treatment. The note with it: for LTP reestablishment by NAB-14, comedication / CDM-induced blockade of LTP inducibility (aLTP) / LTD inducibility (EPSP amplitude after aLTD protocol): CDM mice; for LTP reestablishment by NAB-14, comedication: CIQ or lorazepam injected 20 min prior to NAB-14; for CDM-induced blockade of LTP inducibility (aLTP): pretreatment; for LTD inducibility (EPSP amplitude after aLTD protocol): treatment after CDM. Here is the method:
Animals were preoxygenated in a 100% oxygen atmosphere for 5 min before cervical dislocation and decapitated according to national and institutional guidelines. Transverse 300 […] were cut from hippocampus with a Vibratome (VT1200, Leica, Japan). Slices were prepared in artificial cerebrospinal fluid (ACSF) containing (in mmol/I): 125 NaCl, 25 NaHCO3, 1.25 NaH2PO4, 2.5 KCL, 1 MgCl2, 27 Glucose, 2 CaCl2) bubbled with carbogen (95% O2, 5% CO2).
After 20 min resting time at 35° C., slices were kept at room temperature in aCSF and transferred into the recording chamber (volume approx. 2-3 ml) and continuously superfused with aCSF (rate approx. 5-10 ml/min-). Differential interference contrast video microscopy was used to identify location of CA1 pyramidal neurons (Zeiss Axioskop 2 FS plus, Zeiss Microscopy, Germany). Beside optical identification neurons were classified according to their characteristic firing frequency adaptation to long depolarising current pulses. Borosilicate glass tubes (2.0 mm outer diameter, 0.5 mm wall thickness; Hilgenberg, Germany) were used to pull patch pipettes. Pipettes with a resistance of 5-10 MΩ were used and series resistance of 10-50 MΩ was compensated by bridge balance. Patch pipettes were filled with an internal solution containing (in mM) for EPSP-measurements: 132K-gluconate, 20KCL, 2MgCl2, 10Hepes, 0.1EGTA, 4 Na2ATP, 0.3NaGTP. PH was adjusted to 7.2 with KOH. For current measurements: 135Csgluconate, 2CsCl, 5 QX314, 10 Hepes, 10EGTA, 2MgCl2, 2Na2ATP, 2TEACI, pH was adjusted to 7.2 with HCl. Osmolarity (280-300 mosmol/1) was controlled at the beginning of each experimental day with Osmomat (Gonotec GmbH, Germany).
A stimulation pipette (patch pipette with 1-3 MΩ resistance when filled with internal solution) was placed superficially in the stratum radiatum of the CA1 region in approximately […] distance to the pyramidal cell layer. Subthreshold excitatory postsynaptic potentials (EPSPs, 2 7 mV) were evoked by Schaffer collateral stimulation with voltage pulses of 10-80 V (frequency of 0.1 Hz, duration of 200 μs) using a stimulus isolator (Model 2100 Isolated pulse stimulator, Carlsborg, U.S.A.). Resting membrane potentials were between −75 and −65 mV and holding potential was −70 mV. 50 ms current test pulses (leading to 5-10 mV hyperpolarization) were applied to control input and series resistances after every 10th EPSP. EPSPs were combined with APs triggered by short (3 ms) current application of 900 pA via the patch-clamp electrode. EPC-10 amplifiers (HEKA, Germany) were used and signals were filtered at 5 kHz. Patchmaster NEXT software (Version 1.2, HEKA, Germany) was used for data acquisition and experiments were performed at room temperature.
aLTP: Five EPSPs and five postsynaptic APs were paired at 100 Hz with a 5 ms delay (AP after EPSP). Five of these bursts of synchronized EPSP→AP pairs were applied at theta frequency (5 Hz), followed by an interval of 10 sec and 4 more theta blocks, resulting in 125 EPSP/AP pairings.
aLTD: 360 postsynaptic APs were pared with 360 EPSPs with a delay of 20-30 ms between each AP/EPSP pairing at a frequency of 1 Hz. 1 Hz LTD: 600 EPSPs were elicited at a frequency of 1 Hz whilst CA1 pyramidal cell membrane potential was hold at −60 mV.
Long-term plasticity or molecular analyses were assessed as described above after the induction phase of the CDM and the specific treatment.
EPSP measurement: For baseline measurement, the mean amplitudes of 30 consecutive EPSPs before the induction protocol were calculated. 25 min after LTP induction the mean amplitude of 30 consecutive EPSPs was calculated and compared to the baseline of the same measurement. Changes of EPSP amplitudes were expressed as percentages of the baseline measurement and analysed for each experimental group applying a two-tailed Wilcoxon test. The differences between separate experimental groups were assessed using the Mann-Whitney test, not assuming normal distribution. […]

Another experiment has as its system AMPAR and NMDAR currents. Kind of experiment: Control experiments: currents recorded at −80 mV and +40 mV. The settings on record: CNQX 10 μM; for currents recorded at −80 mV: then addition of DAPV 100 μM; for currents recorded at +40 mV: DAPV 100 μM. The experiment is classed as cell-based, mice.

On to `COc1ccc2nc(/C=C/c3cccc([N+](=O)[O-])c3)n(-c3ccc(C(=O)O)cc3)c(=O)c2c1` [QNZ46, 4-[6-Methoxy-2-[(1E)-2-(3-nitrophenyl)ethenyl]-4-oxo-3(4H)-quinazolinyl]-Benzoic acid], for which the immobility time entry in experiment [1] (CDM mice, 7 mg/kg i.p. two hours before behavioral readout, n=10) is “significantly reduced”.
Regarding `CN[C@]1(c2ccccc2Cl)CCCCC1=O.Cl` [S-ketamine, S-Ketamine hydrochloride], in experiment [2], the “EPSP amplitude after associative LTD protocol (aLTD, NMDAR-independent)” value is “unaffected; also recorded: neither R,S-ketamine (10 μM) nor S-ketamine (5 μM) had an effect”; the “LTD inducibility, non-associative 1 Hz LTD protocol (NMDAR-dependent)” value was “fully blocked; also recorded: abolished”; the “LTP inducibility, non-associative 100 Hz LTP protocol” value was “significant blockade of inducibility of LTP”; the aLTP induction entry is “neither K nor SK blocked aLTP induction; also recorded: not affected”. Besides, the “LTP inducibility, associative LTP protocol (aLTP)” value in experiment [2] was “significant blockade of inducibility of LTP”. Moreover, the “LTP inducibility, associative LTP protocol (aLTP)” value in experiment [2] (listed as SK) is recorded as “complete inhibition of LTP”.
Consider `COc1ccc(OCC2c3cc(OC)c(OC)cc3CCN2C(=O)c2cccc(Cl)c2)cc1` (stereo not shown) [CIQ], for which the “sucrose preference of CDM mice treated with NAB-14, comedication” value in the experiment with CDM mice was “did not improve”. Also, in experiment [3], the “LTP reestablishment by NAB-14, comedication” value was “abolishing LTP reestablishment; also recorded: blocked NAB-14 effects completely”. Moreover, the “immobility time of CDM mice treated with NAB-14, comedication” value in experiment [1] is listed as “did not improve; also recorded: blocked NAB-14 effects”.
On to `NC(=O)c1cc(-c2ccc(F)cc2)c2ccc(CN3C(=O)CCC3=O)cc2n1` [mGluR2 antagonist 1, 7-[(2,5-dioxopyrrolidin-1-yl)methyl]-4-(4-fluorophenyl)quinoline-2-carboxamide], for which, in experiment [3], the “CDM-induced blockade of LTP inducibility (aLTP)” value is “neither HNK nor mGluR2 antagonist 1 treatment did change this blockade” and the “LTD inducibility (EPSP amplitude after aLTD protocol)” value is listed as “abolishes this reduction of amplitude; also recorded: completely blocked the LTD inducibility”.
As to `N#Cc1cc2c(cc1[N+](=O)[O-])=NC(=O)C(=O)N=2` [CNQX, 6-Cyano-7-nitroquinoxaline-2,3-dione], in the experiment with AMPAR and NMDAR currents, the “currents recorded at −80 mV” value is “fully blocked” and the “currents recorded at +40 mV” value was “only partially be reduced; also recorded: only partially influenced”.
As to `O=C1Nc2ccc(Cl)cc2C(c2ccccc2Cl)=NC1O` (stereo not shown) [lorazepam], the “sucrose preference of CDM mice treated with NAB-14, comedication” value in the experiment with CDM mice is “did not improve”. The “LTP reestablishment by NAB-14, comedication” value is given as “abolishing LTP reestablishment” in experiment [3] and “blocked NAB-14 effects completely” in experiment [3] (listed as Lorazepam). Also, in experiment [3] (control and CDM condition), the “LTP inducibility, lorazepam alone” value is “did block LTP inducibility”. Moreover, the “immobility time of CDM mice treated with NAB-14, comedication” value is given as “did not improve” in experiment [1] and “blocked NAB-14 effects” in experiment [1] (listed as Lorazepam).
In the case of `N[C@@]1(c2ccccc2Cl)CCC[C@@H](O)C1=O` [HNK, 2R,6R Hydroxynorketamine], in experiment [3], the “CDM-induced blockade of LTP inducibility (aLTP)” value is given as “neither HNK nor mGluR2 antagonist 1 treatment did change this blockade” and the “LTD inducibility (EPSP amplitude after aLTD protocol)” value is reported as “abolishes this reduction of amplitude; also recorded: completely blocked the LTD inducibility”. For the same compound, the “EPSP amplitude after aLTD” value in experiment [3] (treatment prior to swim sessions (before CDM), male and female mice) is recorded as “complete revers of EPSP amplitudes”.
Take `N[C@H](CCCP(=O)(O)O)C(=O)O` [DAPV, D-(−)-2-Amino-5-phosphonopentanoic acid]: in the experiment on AMPAR and NMDAR currents, the “currents recorded at −80 mV” value is “did not significantly change; also recorded: did not have further effects” and the “currents recorded at +40 mV” value is on record as “full blockade; also recorded: fully blocked”.
